{
  "source": "patent US20210275443A1",
  "about": "“SUSTAINED-RELEASE INJECTION PREPARATION CONTAINING DONEPEZIL DERIVATIVE” (NANJING NORATECH PHARMACEUTICAL CO., LTD., priority 2018, published 2021)",
  "conditions": "after i.m. administration of the suspension",
  "method": "There were 3 animals in each group. […] The whole blood was centrifuged to collect plasma, which was transferred to a 96-well plate, and stored at −20° C. for detection by LC-MS/MS. The drug concentration at each sampling time was determined by measuring the standard curve of reference donepezil in plasma.",
  "data": [
    {"smiles": "CCCCCCC(=O)OC1=C(CC2CCN(Cc3ccccc3)CC2)Cc2cc(OC)c(OC)cc21", "note": "[donepezil heptanoate, Donepezil Heptanoate]", "values": [
      {"measurement": "Metabolism of the prodrug into donepezil after administration", "result": "rapidly metabolized into donepezil"}
    ]}
  ]
}
